Structures can show the parent of a compound that is named as a salt.
These compounds were tested on HeLa cells (assay: CellTiter-Glo luminescent cell viability (cytotoxicity) assay). Conditions: Homo sapiens, HeLa, 48 h, 10 μM test compound, inhibition of luminescence compared to control cells, read-out: Activity (PCT_INHIB @ 10 μM).
Type: cell-based
Method: Cytotoxicity was assessed using Promega's CellTiter-Glo® luminescent cell viability assay (Promega Corporation, Madison, Wis., USA) as described in Promega Technical Bulletin TB288, revised August 2008. The assay was performed in HeLa cells at a maximum concentration tested of 10 μM of test compound. This assay measures the amount of adenosine triphosphate (ATP) present as a way of quantifying the presence and degree of metabolic activity in cell cultures.
Viable Hela cells were plated at a density of 3000 cells/well in 96 wells in black, clear bottom plates. Cells were allowed to attach to the plate by incubating overnight at 37° C. Test compounds were diluted in DMSO then further diluted in 10% FBS media. Media was removed from the cell plates and 50 μL of the solution was added to each well manually with the exception of the control well, which contained the same volume of 10% FBS media which includes 1% DMSO. Cells were incubated in the presence of compound undisturbed for 48 hours at 37° C. After the 48 hour compound exposure, 50 μL of the pCellTiter Glo® reagent was added. The cell plates were agitated on a shaker for 2 minutes to help lyse the cells. The plate was covered and read for luminescence.
Percent inhibition was calculated as follows: PCT_INHIB=100*[(U−T)/U] Where U represents the Luminescence of wells containing untreated cells and
T represents the Luminescence of wells containing compound-treated cells
Compound C[C@@H]1[C@@H](NC(=O)C2CCS(=O)(=O)N2Cc2cccc(CN(Cc3cc(Cl)ccc3O)[C@H](CN(C)C)CC(C)(C)C)c2)C[C@H]2C[C@@H]1C2(C)C (stereo partly drawn) [Example 1, 2-(3-{[(5-Chloro-2-hydroxy-benzyl)-((S)-1-dimethylaminomethyl-3,3-dimethyl-butyl)-amino]-methyl}-benzyl)-1,1-dioxo-1λ^6-isothiazolidine-3-carboxylic acid((1S,2S,3S,5R)-2,6,6-trimethyl-bicyclo[3.1.1]hept-3-yl)-amide] has an inhibition at 10 µM of 96%. COc1ccc(Cl)c(CN(Cc2cccc(CN3C(C(=O)N[C@H]4C[C@H]5C[C@@H]([C@@H]4C)C5(C)C)CCS3(=O)=O)c2)[C@@H](Cc2cccc(Cl)c2)CN(C)C)c1F (stereo partly drawn) [Example 22, 2-[3-({(6-Chloro-2-fluoro-3-methoxy-benzyl)-[(S)-2-(3-chloro-phenyl)-1-dimethylaminomethyl-ethyl]-amino}-methyl)-benzyl]-1,1-dioxo-1λ^6-isothiazolidine-3-carboxylic acid((1S,2S,3S,5R)-2,6,6-trimethyl-bicyclo[3.1.1]hept-3-yl)-amide] showed an inhibition at 10 µM of 93%. COc1ccc(Cl)c(CN(Cc2cc(CN3C(C(=O)N[C@H]4C[C@H]5C[C@@H]([C@@H]4C)C5(C)C)CCS3(=O)=O)cc(N(C)C)c2)[C@H](CN(C)C)CC(C)(C)C)c1F (stereo partly drawn) [Example 35, 2-(3-{[(6-Chloro-2-fluoro-3-methoxy-benzyl)-((S)-1-dimethylaminomethyl-3,3-dimethyl-butyl)-amino]-methyl}-5-dimethylamino-benzyl)-1,1-dioxo-1λ^6-isothiazolidine-3-carboxylic acid((1S,2S,3S,5R)-2,6,6-trimethyl-bicyclo[3.1.1]hept-3-yl)-amide, hydrochloride salt] gave an inhibition at 10 µM of 86%. With COc1ccc(Cl)c(CN(Cc2cccc(CN3C(C(=O)NC4C5CC6CC(C5)CC4C6)CCS3(=O)=O)c2)[C@H](CN(C)C)CC(C)(C)C)c1F (stereo partly drawn) [Example 30, 2-(3-{[(6-Chloro-2-fluoro-3-methoxy-benzyl)-((S)-1-dimethylaminomethyl-3,3-dimethyl-butyl)-amino]-methyl}-benzyl)-1,1-dioxo-1λ^6-isothiazolidine-3-carboxylic acid adamantan-2-ylamide] the inhibition at 10 µM was 96%. In the case of COc1ccc(Cl)c(CN(Cc2cccc(CN3C(C(=O)N[C@H]4C[C@H]5C[C@@H]([C@@H]4C)C5(C)C)CCS3(=O)=O)c2)[C@@H](Cc2ccc(Cl)cc2)CN(C)C)c1F (stereo partly drawn) [Example 23, 2-[3-({(6-Chloro-2-fluoro-3-methoxy-benzyl)-[(S)-2-(4-chloro-phenyl)-1-dimethylaminomethyl-ethyl]-amino}-methyl)-benzyl]-1,1-dioxo-1λ^6-isothiazolidine-3-carboxylic acid((1S,2S,3S,5R)-2,6,6-trimethyl-bicyclo[3.1.1]hept-3-yl)-amide], the inhibition at 10 µM is reported as 96%. Work on C[C@@H]1[C@@H](NC(=O)C2CCS(=O)(=O)N2Cc2cccc(CN(Cc3c(F)ccc(F)c3F)[C@H](CN(C)C)CC(C)(C)C)c2)C[C@H]2C[C@@H]1C2(C)C (stereo partly drawn) [Example 13, 2-(3-{[((S)-1-Dimethylaminomethyl-3,3-dimethyl-butyl)-(2,3,6-trifluoro-benzyl)-amino]-methyl}-benzyl)-1,1-dioxo-1λ^6-isothiazolidine-3-carboxylic acid((1S,2S,3S,5R)-2,6,6-trimethyl-bicyclo[3.1.1]hept-3-yl)-amide trifluoroacetate salt] yielded an inhibition at 10 µM of 93%. For C[C@@H]1[C@@H](NC(=O)C2CCS(=O)(=O)N2Cc2cccc(CN(Cc3ccccc3Oc3ccc(F)cc3)[C@H](CN(C)C)CC(C)(C)C)c2)C[C@H]2C[C@@H]1C2(C)C (stereo partly drawn) [Example 6, 2-[3-({((S)-1-Dimethylaminomethyl-3,3-dimethyl-butyl)-[2-(4-fluoro-phenoxy)-benzyl]-amino}-methyl)-benzyl]-1,1-dioxo-1λ^6-isothiazolidine-3-carboxylic acid((1S,2S,3S,5R)-2,6,6-trimethyl-bicyclo[3.1.1]hept-3-yl)-amide trifluoroacetate salt], the inhibition at 10 µM was 82%.

Reference: patent US8314250B2, “Sultam derivatives” (Hoffmann-La Roche Inc., priority 2009, dated 2012)
